# Measurements: patent US10190093B2, “Artificial oocyte activation” (The Curators of the University of Missouri, priority 2013, dated 2019)
# Where “and” joins values, the source holds several entries; their conditions need not be identical. Equal values may be shown once. Entries after “also recorded” stand apart in the source; their conditions may differ. Marks after values point to notes of the source that are not given here.
# How the values were obtained:
# [1] = test system: activated porcine oocytes; test: Treatment of chemically (THI/DTT) activated oocytes with TPEN, parthenogenetic embryo development; format: cell-based, pig
# Experimental: Oocytes were obtained from either pre-pubertal gilt ovaries from an abattoir (Farmland Foods Inc., Milan, Mo.), or sow-derived oocytes that were purchased from Applied Reproductive Technology (Madison, Wis.). Immature oocytes from gilt ovaries were aspirated from medium size (3-6 mm) follicles by using an 18 gauge hypodermic needle attached to a 10 mL syringe. Oocytes with evenly dark cytoplasm and intact surrounding cumulus cells were then selected for maturation. Around 50 cumulus oocyte complexes were place in a well containing 500 μL of maturation medium, TCM 199 (Invitrogen, Grand Island, N.Y.) with 3.05 mM glucose, 0.91 mM sodium pyruvate, 0.57 mM cysteine, 10 ng/mL epidermal growth factor (EGF), 0.5 mg/mL luteinizing hormone (LH), 0.5 mg/mL follicle stimulating hormone (FSH), 10 ng/mL gentamicin (APP Pharm, Schaumburg, Ill.), and 0.1% polyvinyl alcohol (PVA) for 42-44 hr at 38.5° C., 5% CO2, in humidified air. […] At the end of the maturation, the surrounding cumulus cells were removed from the oocytes by vortexing for 3 min in the presence of 0.1% hyaluronidase. Oocytes with a visible polar body were selected in manipulation medium (TCM199 with 0.6 mM NaHCO3, 2.9 mM Hepes, 30 mM NaCl, 10 ng/mL gentamicin, and 3 mg/mL bovine serum albumin [BSA]; and osmolarity of 305) and then used for the experiments. Different oocyte activation methods were used for the experiments. As conventional activation methods, either electrical or chemical activation was used. For electrical activation, mature oocytes were activated in activation medium (0.3 M mannitol, 1.0 mM CaCl2, 0.1 mM MgCl2, and 0.5 mM Hepes) by two direct-current (DC) pulses (1-sec interval) at 1.2 kV/cm for 30 μsec (using BTX Electro Cell Manipulator, Harvard Apparatus, Holliston, Mass.). […] For TPEN mediated activation, mature oocytes were incubated in TL-Hepes media with various concentrations of TPEN for different durations. […] At the end of the culture, where applicable, the frequency of cleaved embryos and blastocysts, and total cell number in the blastocysts were recorded. Hoechst 33342 (1.2 mg/mL) was used to stain nuclei and the embryos were then evaluated by epi-fluorescence microscopy. Treatment of activated oocytes with TPEN was investigated for the potential to increase the efficiency of oocyte activation. […] It was hypothesized that the detrimental effect was due to excess stimuli from Ca^2+ signaling and TPEN. Therefore, lower concentrations of TPEN were introduced after activating oocytes with a conventional method. Incubating activated oocytes with a lower concentration of TPEN increased developmental potential of parthenogenetic embryos.
# SCNT embryos = test: TPEN activation method on the development of SCNT embryos; format: cell-based, pig; settings: SCNT embryos activated with TPEN (200 μM, 30 min) as major activating reagent
# Experimental: At the end of the culture, where applicable, the frequency of cleaved embryos and blastocysts, and total cell number in the blastocysts were recorded. Hoechst 33342 (1.2 mg/mL) was used to stain nuclei and the embryos were then evaluated by epi-fluorescence microscopy. Additionally, the effect of the TPEN activation method alone on the development of SCNT embryos was tested.
# MII oocytes = test: Intracellular calcium measurement (fura-2); format: cell-based, pig; settings: oocytes exposed to TPEN 5, 10, and 200 μM
# Experimental: The zonae pellucidae were removed after maturation and zona-free oocytes were loaded with the Ca^2+ indicator dye, fura-2. For this purpose, they were incubated in the presence of […] of the acetoxymethyl ester form of the dye and 0.02% pluronic F-127 for 40-50 min (both from Invitrogen). The dye loaded oocytes were transferred into a chamber with a cover-glass bottom and the chamber was then placed on the heated stage of an inverted microscope. Changes in the intracellular free Ca^2+ concentration were recorded using InCytIm2, a dual-wavelength fluorescence imaging system (Intracellular Imaging, Inc.; Cincinnati, Ohio). During measurements the emitted fluorescence was detected at 510 nm after exciting the dye alternately at 340 and 380 nm. The ratio of the two emitted fluorescence intensities was calculated and the data are presented as fluorescence ratio values. Ratios of 1.0 and 5.0 correspond to about 100 and 1,200 nM Ca^2+, respectively. In each treatment group the measurements were repeated at least 5 times using different oocytes.
# [2] = test system: SCNT embryos transferred into surrogate gilt; test: Embryo transfer, in vivo development competence of SCNT embryos
# Experimental: To address in vivo competency of SCNT embryos activated by utilizing TPEN, a series of embryo transfers were performed. For the study, at day 1, the SCNT-derived embryos were surgically transferred into the ampullary-isthmic junction of a surrogate gilt at 0 or 1 days after observed estrus. At the end of gestation periods, piglets were recovered through C-section.
# Six embryo transfers were performed for the study and two surrogates carried their pregnancy to term, each resulting in two healthy piglets (Table 6). One of the term development was from SCNT embryos that were not treated with a HDAC inhibitor, Scriptaid.
smiles,measurement,setting,value
"c1ccc(CN(CCN(Cc2ccccn2)Cc2ccccn2)Cc2ccccn2)nc1 [TPEN, N,N,N′,N′-tetrakis(2-pyridylmethyl)ethane-1,2-diamine]",% blastocysts,"[1]; THI/DTT + 5 μM TPEN, 30 min",27.2±1.7% and 27.2^b %
same,% cleaved,"[1]; THI/DTT + 5 μM TPEN, 30 min",74.6^b %
same,Total cell number in blastocysts,"[1]; THI/DTT + 5 μM TPEN, 30 min",33.1 ± 2.6^b
same,% blastocysts,"[1]; THI/DTT + 10 μM TPEN, 10 min",21.7^b %
same,% cleaved,"[1]; THI/DTT + 10 μM TPEN, 10 min",81.9^b %
same,Total cell number in blastocysts,"[1]; THI/DTT + 10 μM TPEN, 10 min",31.2 ± 2.6^b
same,blastocyst formation,"[1]; chemically activated oocytes incubated with TPEN 100 μM, 45 min",no blastocyst formation was observed
same,Day 6 blastocyst formation,SCNT embryos,25.8% (8/31)
same,Day 7 blastocyst formation,SCNT embryos,35.5% (11/31)
same,intracellular Ca2+ increase,MII oocytes,does not induce a Ca^2+ increase; also recorded: no Ca^2+ increase was detected
same,Result of embryo transfer,"[2]; SCNT + 5 μM TPEN, 30 min + Scriptaid",2 normal piglets were and Cycled
same,Result of embryo transfer,"[2]; SCNT + 5 μM TPEN, 30 min, no Scriptaid",2 normal piglets were and Cycled
same,Result of embryo transfer,"[2]; SCNT + 10 μM TPEN, 10 min + Scriptaid",Cycled
same,"toxicity to SCNT embryos, full term development",[2]; embryo transfers of TPEN treated SCNT embryos,not toxic to the SCNT embryos
